The test system of data set [1] is CACO-2 cells. Put plainly: Epithelial cell interaction monitored as transepithelial electrical resistance (TEER). In kind it is cell-based. On the procedure: Possible interaction with epithelial cells in the form of CACO-2 cells monitored as transepitheliar electrical resistance (TEER) was studied for some of the compounds. In short, after an equilibration time of 60 min the buffer solution at the donor side was exchanged with a buffer solution containing a certain concentration of the surfactant and TEER was then measured after 8 hours.

Data set [2] concerns dog blood erythrocyte suspension. As to the kind of experiment: Haemolytic activity, static method (erythrocyte suspension incubated with surfactant, haemoglobin analysed). The note with it: for Hemolysis: 40 min at 37° C. In kind it is cell-based. On the procedure:
A static method for evaluating the haemolytic activity of compounds was used. In short, dog blood is processed to an erythrocyte suspension, which is then incubated (40 min at 37° C.) with varying concentrations of a surfactant. The incubation is terminated by centrifugation after which the plasma, now containing different amounts of haemoglobin, can be removed and analysed. The results obtained for various MePEG- and PEG mono-12-acyloxy-stearate esters compared with a reference substance (Tween 80), are summarized in tables 3-4.

Data set [3] in a line: physchem. On the procedure:
The solubilization capacity of the compounds of the invention and compounds of prior art for two poorly soluble (i.e. less than sparingly soluble) drug molecules, felodipine and griseofulvin, were tested. […] Sci., 1998, 87(2), 200-8]. The solubilization capacity for each surfactant was determined from the slope of the curve in a graph where the felodipine/griseofulvin concentration was plotted against the surfactant concentration at surfactant concentrations above CMC (critical micellar concentration).

For data set [4] the following is noted: cited from earlier work.

In brackets after ≈: the same amount, converted by molar mass. Like-named read-outs stand apart in the source and are kept apart here.

Regarding MePEG1200 12-palmitoyloxy-stearate, the “TEER after 8 hours exposure” value in data set [1] (surfactant conc 10 mM) came to 94%; in data set [1] (surfactant conc 50 mM) it was 103%.
In the case of PEG1500 mono-12-myristoyloxy-stearate, the “TEER after 8 hours exposure” value in data set [1] (surfactant conc 0.1 mM) came out at 104%; in data set [1] (surfactant conc 1 mM), 100%; in data set [1] (surfactant conc 10 mM) it was 104%; in data set [1] (surfactant conc 50 mM) it was 98%.
Turning to PEG1500 mono-12-palmitoyloxy-stearate, the “TEER after 8 hours exposure” value in data set [1] (surfactant conc 0.1 mM) came to 98%; in data set [1] (surfactant conc 1 mM) it was 105%; in data set [1] (surfactant conc 10 mM), 103%; in data set [1] (surfactant conc 50 mM), 101%.
The matching figures for PEG1500 mono-12-stearoyloxy-stearate: 98%, 104%, 103% and 108%.
On to `CCCCCCC(O)CCCCCCCCCCC(=O)OCCOCCOCCOCCOCCOCCOCCOCCOCCOCCOCCOCCOC` (stereo not shown) [MePEG550 12-hydroxystearate], for which the “haemolysis (in words)” value in data set [2] (at 1 mM) was “profound hemolysis”. Further, the Hemolysis in data set [2] (surfactant conc 1.0 mM) turned out to be 25%; in data set [2] (surfactant conc 5.0 mM), 86%; in data set [2] (surfactant conc 10 mM), 79%. Also, the “concentration causing total haemolysis” value in data set [2] (text summary of Tables 3-4) was found to be 5000 µM.
As for PEG1500 mono-12-lauroyloxy-stearate, the “change in TEER / interaction with epithelial cells (in words)” value in data set [1] (after 8 hours) is “substantial decrease in TEER”. Also, the “TEER after 8 hours exposure” value in data set [1] (surfactant conc 0.1 mM) was 100%; in data set [1] (surfactant conc 1 mM), 96%; in data set [1] (surfactant conc 10 mM), 93%; in data set [1] (surfactant conc 50 mM) it was 37%.
As to MePEG1200 12-stearoyloxy-stearate, the “TEER after 8 hours exposure” value in data set [1] (surfactant conc 10 mM) is on record as 101%; in data set [1] (surfactant conc 50 mM), 71%.
For `CCCCCCCC(=O)OC(CCCCCC)CCCCCCCCCCC(=O)OCCOCCOCCOCCOCCOCCOCCOCCOCCOCCOCCOCCOCCO` (stereo not shown) [PEG600 mono-12-octanoyloxy-stearate], the figures for the Hemolysis in data set [2] (surfactant conc 0.6 mM) and in data set [2] (surfactant conc 0.7 mM) were 88% and 102%, respectively.
`CCOC(=O)C1=C(C)NC(C)=C(C(=O)OC)C1c1cccc(Cl)c1Cl` (stereo not shown) [felodipine]: the solubility in water is 2.1 µM (≈ 0.807 µg/mL) in data set [3] and 0.8 µg/mL (≈ 2.08 µM) in data set [4].
Turning to `CCCCCCC(CCCCCCCCCCC(=O)OCCOCCOCCOCCOCCOCCOCCOCCOCCOCCOCCOCCOCCO)OC(=O)CCCCC` (stereo not shown) [PEG600 mono-12-hexanoyloxy-stearate], the Hemolysis in data set [2] (surfactant conc 0.6 mM) is given as 83%; in data set [2] (surfactant conc 0.7 mM), 92%. For the same compound, the “TEER after 8 hours exposure” value was found to be 89% in data set [1] (surfactant conc 0.1 mM), 43% in data set [1] (surfactant conc 1 mM), 39% in data set [1] (surfactant conc 10 mM) and 37% in data set [1] (surfactant conc 50 mM).
For MePEG2000 12-stearoyloxy-stearate, the “TEER after 8 hours exposure” value in data set [1] (surfactant conc 10 mM) worked out at 98%; in data set [1] (surfactant conc 50 mM) it was 96%.
As for MePEG2000 12-palmitoyloxy-stearate, the results for the “TEER after 8 hours exposure” value in data set [1] (surfactant conc 10 mM) and in data set [1] (surfactant conc 50 mM) were 96% and 99%, respectively.
Consider PEG1500 mono-12-oleoyloxy-stearate, for which the “TEER after 8 hours exposure” value is recorded as 105% in data set [1] (surfactant conc 0.1 mM), 104% in data set [1] (surfactant conc 1 mM), 95% in data set [1] (surfactant conc 10 mM) and 108% in data set [1] (surfactant conc 50 mM).
Usually solubility stands for the dissolved amount per volume that the medium holds. In turn, `COC1=CC(=O)C[C@@H](C)[C@]12Oc1c(Cl)c(OC)cc(OC)c1C2=O` [griseofulvin] displayed a solubility in data set [3] (water) of around 23 µM (≈ 8.11 µg/mL). Further, the solubility in water entry in data set [4] is given as “approximately 8.1 μg/ml”.
